Consider 61 molecules from a melting point compilation (Tetko et al.; mined from patent text by program, amines drawn as free bases though some values may be those of a salt).

In general, melting point refers to the temperature, or range, at which the solid turns liquid. For the molecule `O=C(O)c1ccc2c(c1)S(=O)c1ccccc1CC2` (stereo unspecified), the melting point was 261 to 265 °C.

Take `C[C@@H](Nc1c(Nc2cccnc2)c(=O)c1=O)C(C)(C)C`: the melting point lay within 283 to 285 °C.

`O=C1CCCC(n2nc(-c3c(-c4ccccc4)nn4ccccc34)ccc2=O)C1` (stereo unspecified) registered a melting point of 126 to 127 °C.

`O=C(O)COc1ccccc1-c1ccc(Cl)c(C(=O)NCC23CC4CC(CC(C4)C2)C3)c1` registered a melting point of 208 to 210 °C.

Turning to `CN(C)C(=O)CCc1ccc(NC(=O)Nc2ccc(Cl)c(C(F)(F)F)c2)c(-c2nnn[nH]2)c1`, the melting point lay within 184 to 189 °C.

`CCCc1c(OCCCOc2ccc(C(=O)NCCCCc3cccnc3)cc2)ccc(C(C)=O)c1O` registered a melting point of 133 to 134 °C.

As for `ON=C(c1ccccc1)c1ccc(OCCCOc2ccc(C(=NO)c3ccccc3)cc2)cc1`, the melting point lay in the range of 205 to 208 °C.

`CN1CCN(c2ccc(NC=C3C(=O)NC(=O)c4ccc(OCCN5CCOCC5)cc43)cc2)CC1` registered a melting point of 142 to 143 °C.

`N#Cc1cc(Br)c2c(c1)N(C1CC1)CNS2(=O)=O`: the melting point fell in the range of 250 to 253 °C.

Regarding `O=C(O)CN1C(=O)c2ccc(C(=O)O)cc2C1=O`, the melting point lay in the range of 262 to 265 °C.

`O=C(O)CCCc1cc2cc(Cl)ccc2n1S(=O)(=O)c1ccc2ncsc2c1` gave a melting point of 74 to 80 °C.

Molecule `COc1ccc(C(=O)Nc2ccccc2CCC2CCCCN2C)cc1` (stereo unspecified) had a melting point of 127 to 128 °C.

Turning to `N#Cc1ccc(N2CCN(CC(=O)O)CC2=O)cc1`, the melting point was 120 °C.

Molecule `CCN1CCN([C@@H]2c3cc(C#N)ccc3OC(C)(C)[C@H]2O)C1=NC#N` (relative stereo) came in with a melting point of 231 to 233 °C.

As for `COc1cn(-c2ccc(I)cc2F)nc(-c2ccnn2-c2ccccc2)c1=O`, the melting point lay in the range of 194 to 196 °C.

As for `O=S1(=O)c2cccc3cccc(c23)N1CC(Br)CN1CCN(c2ccc(F)cc2)CC1` (stereo unspecified), the melting point came to 102 °C.

Consider `COc1cc(CCc2c(C=O)ccc(OC)c2OC)cc(OC)c1`, for which the melting point lay in the range of 88 to 89 °C.

As for `CC(C)=CCCn1c(=O)sc2c(=O)[nH]c(N)nc21`, the melting point was in the range of 240 to 242 °C.

Molecule `COc1ccc(-c2[nH]nc3c2C(=O)c2c(NC(=O)Cc4cc(OC)ccc4OC)cccc2-3)cc1` returned a melting point of 226 °C.

As to `N#Cc1ccc(S(=O)(=O)Nc2ccc(Br)c3cc[nH]c23)cc1`, the melting point is 214 to 216 °C.

With `CC(C)c1ccc(N(Cc2ccc(N(C)C)cc2)C(=O)C2CCCc3ccccc32)cc1` (stereo unspecified), the melting point worked out at 121 °C.

For `O=C(NO)c1ccc(C(=O)Nc2cccc(Nc3nc(-c4cccnc4)cs3)c2)cc1`, the melting point came out at 206 °C.

`COc1ccc(NC(C)=C2C(=O)OC(=O)C(C(C)=O)=C2O)cc1` had a melting point of 212 to 214 °C.

In the case of `Cc1oc(-c2ccccc2)nc1COc1ccc(CO)cn1`, the melting point fell in the range of 121 to 122 °C.

With `CSc1ccc(-c2nc(SC)ccc2-c2ccc(S(C)(=O)=O)cc2)cc1`, the melting point stood at 175 °C.

Take `COc1ccc2cc(C(C)=CC(C)=O)cc(F)c2c1`: the melting point lay within 126 to 127 °C.

In turn, `CN1c2ccccc2NC(=O)c2cccnc21` registered a melting point of 235 to 237 °C.

Regarding `Nc1nc(-c2cccnc2Cl)c(-c2cccnc2Cl)o1`, the melting point is 243 to 244 °C.

In turn, `Cc1cc(O)c(C(=O)Nc2ccc(S(=O)(=O)C(F)(F)F)cc2Cl)c(C)c1S(C)=O` (stereo unspecified) had a melting point of 205 to 206 °C.

On to `CCNC(=O)c1ccc(-c2ccc3nnn(Cc4ccc5ncccc5c4)c3n2)cc1F`, for which the melting point was in the range of 207 to 209 °C.

Regarding `Cc1cc(-c2nc3cccnn3c2-c2ccnc(NC(=O)NCCO)c2)ccc1F`, the melting point was in the range of 189 to 190 °C.

`CCON=C(C)c1ccc2c(c1)ncn2-c1cccc(COCc2ncnn2C)c1` had a melting point of 130 to 134 °C.

Turning to `CNc1nc(SCc2ccc(OC)cc2)nc(N2CCOCC2)c1N`, the melting point is 79.5 to 84 °C.

On to `COC(=O)c1ccc(C(=O)N2CCC(NC3CCOCC3)CC2)cc1`, for which the melting point stood at 129 °C.

In turn, `O=[N+]([O-])c1ccc(Oc2ccccc2Oc2ccc([N+](=O)[O-])cc2)cc1` registered a melting point of 134 to 135 °C.

The molecule `COc1ccc(-c2cnc(N)c(Sc3ccccc3)n2)cc1` had a melting point of 89 to 90 °C.

With `CSc1nc(O)nn1C`, the melting point lay within 128 to 130 °C.

In turn, `CCCCc1nn(-c2ccccc2C(F)(F)F)c(=O)n1Cc1ccc(-c2ccccc2S(N)(=O)=O)cc1` yielded a melting point of 74 to 76 °C.

`C=C(CC1(CC(=C)C(=O)OC(C)(C)C)C(=O)N(C)C(=O)N(C)C1=O)C(=O)OC(C)(C)C` returned a melting point of 90 to 91 °C.

`COc1ccc(N2CCN(c3c(C)c(C)c4c(c3C)CC(C)(CNC(C)=O)O4)CC2)cc1` (stereo unspecified) yielded a melting point of 146 to 152 °C.

For the molecule `CN(Cc1ccc(C(=O)Nc2ccc(Nc3cc(-c4cccc5c4oc4ccccc45)ncn3)cc2)cc1)C(=O)OC(C)(C)C`, the melting point was in the range of 225 to 230 °C.

`C#Cc1cn(C2CC(O)C(COC(=O)C(C)(C)C)O2)c(=O)[nH]c1=O` (stereo unspecified) gave a melting point of 64 to 66 °C.

`O=C(O)CS(=O)(=O)c1ccc2c(-c3ccc(Cl)cc3)noc2c1Cl` had a melting point of 212 to 213 °C.

In turn, `N#Cc1cccc(C(=O)NC2CCCNC(=O)C2)c1` (stereo unspecified) registered a melting point of 221 to 222 °C.

Take `O=C1c2nccnc2C(=O)N1c1ccc(Cl)cn1`: the melting point came to 165 °C.

For the molecule `O=c1[nH][nH]c(=O)n1-c1c(F)cc(Cl)c2c1CCCO2`, the melting point lay within 271 to 273 °C.

Consider `COc1cc(C(=O)c2nc(NC(=O)C(F)(F)F)c3ccccn23)ccc1[N+](=O)[O-]`, for which the melting point worked out at 228 °C.

The molecule `O=C(O)Cc1cc(C(=O)c2ccc(I)c([N+](=O)[O-])c2)sc1-c1ccccc1` registered a melting point of 100 to 103 °C.

With `COc1cc(OC)nc(SC)n1`, the melting point fell in the range of 50 to 52 °C.

With `O=C(c1ccccc1)N1CCc2[nH]c3cccc(-c4cc(F)cc(F)c4)c3c2CC1`, the melting point lay within 198 to 201 °C.

The molecule `COC(=O)c1cccc(CCN(C)CCCC(C#N)(C(=O)OC)c2ccc(OC)c(OC)c2)c1` (stereo unspecified) displayed a melting point of 94 to 95 °C.

For the molecule `N#Cc1cc(Cn2nnc(C(N)=O)c2N)ccc1Cl`, the melting point fell in the range of 172 to 175 °C.

`CN1CCC(=C2c3ccccc3CCc3sc(Br)cc32)CC1`: the melting point lay in the range of 141 to 142 °C.

`Brc1cccc(OCCOc2nccnc2N2CCNCC2)c1` registered a melting point of 62 to 63 °C.

Turning to `CCCN(Cc1ccc(NCCN(CC)CC)c2c(=O)c3ccccc3sc12)S(C)(=O)=O`, the melting point lay in the range of 142 to 143 °C.

In the case of `C=CC[C@@H]1C[C@@H](COC(c2ccccc2)(c2ccccc2)c2ccccc2)N(Cc2ccc(OC)cc2)C1=O`, the melting point lay in the range of 130 to 132 °C.

Consider `COc1cc2ncnc(Nc3cc(Cl)cc(N=[N+]=[N-])c3)c2cc1OC`, for which the melting point is 205 to 206 °C.

In the case of `CSC1(C)C(=O)N(C(C)=O)c2ccc(C3=NNC(=O)SC3)cc21` (stereo unspecified), the melting point stood at 198 °C.

Molecule `O=C1CCC(N2Cc3c(CNC(=O)Nc4ccccc4)cccc3C2=O)C(=O)N1` (stereo unspecified) displayed a melting point of 328 to 330 °C.

In turn, `C=CCCc1cccc2c1C(=O)C1=C(CCCC1)C2=O` returned a melting point of 111 to 113 °C.

As to `c1csc(-c2nc(COc3ccc(CCCn4ccnc4)cc3)co2)c1`, the melting point is 84 to 85 °C.
